# Laboratory results as given in the supplement of paper PMC10307832.
# Experiments:
# Test in all cases: relative viability (nuclei count vs DMSO), 5 days (fraction); higher = more cells survive
# VX-11e = compound: CC1=CN=C(N=C1C2=CNC(=C2)C(=O)N[C@H](CO)C3=CC(=CC=C3)Cl)NC4=C(C=C(C=C4)F)Cl [VX-11e]
# Procedure, shortened: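 Acceptance criteria were a control CV below 25% and at least one doubling per plate. Lung cancer cell lines in 1536-well plates got five library-drug doses (not always all listed) √10 apart by pinning and were left 5 days with no medium change. Viability divides treated-well nuclei by vehicle-well nuclei and is the median across plates. Nuclei were counted by MetaXpress from 4× Hoechst images.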
# VX-11e + Trametinib = compound: CC1=CN=C(N=C1C2=CNC(=C2)C(=O)N[C@H](CO)C3=CC(=CC=C3)Cl)NC4=C(C=C(C=C4)F)Cl [VX-11e] + CC(=O)Nc1cccc(-n2c(=O)n(C3CC3)c(=O)c3c(Nc4ccc(I)cc4F)n(C)c(=O)c(C)c32)c1 [Trametinib] (partner 0.02 µM)
# Procedure, shortened: (§1)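 Lung cancer cell lines were pin-tool dosed in 1536-well plates on the day after seeding, with either a lone drug or a fixed anchor-drug dose plus five library-drug doses (not always all listed) in √10 steps. Nuclei were counted on 4× images after 5 days. Relative viability is the ratio of treated-well to vehicle-well nuclei counts, with each value a median of duplicate plates.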
# VX-11e + Phenformin = compound: CC1=CN=C(N=C1C2=CNC(=C2)C(=O)N[C@H](CO)C3=CC(=CC=C3)Cl)NC4=C(C=C(C=C4)F)Cl [VX-11e] + N=C(N)NC(=N)NCCc1ccccc1 [Phenformin] (partner 250 µM)
# Procedure, shortened: as §1
# VX-11e + Olaparib = compound: CC1=CN=C(N=C1C2=CNC(=C2)C(=O)N[C@H](CO)C3=CC(=CC=C3)Cl)NC4=C(C=C(C=C4)F)Cl [VX-11e] + O=C(c1cc(Cc2n[nH]c(=O)c3ccccc23)ccc1F)N1CCN(C(=O)C2CC2)CC1 [Olaparib] (partner 8 µM)
# Procedure, shortened: as §1
Cell Line,relative viability (VX-11e; 0.04 µM),relative viability (VX-11e; 0.1265 µM),relative viability (VX-11e; 0.4 µM),relative viability (VX-11e; 1.265 µM),relative viability (VX-11e; 4 µM),relative viability (VX-11e + Trametinib; first compound 0.04 µM),relative viability (VX-11e + Trametinib; first compound 0.1265 µM),relative viability (VX-11e + Trametinib; first compound 0.4 µM),relative viability (VX-11e + Trametinib; first compound 1.265 µM),relative viability (VX-11e + Trametinib; first compound 4 µM),relative viability (VX-11e + Phenformin; first compound 0.04 µM),relative viability (VX-11e + Phenformin; first compound 0.1265 µM),relative viability (VX-11e + Phenformin; first compound 1.265 µM),relative viability (VX-11e + Phenformin; first compound 4 µM),relative viability (VX-11e + Olaparib; first compound 0.04 µM),relative viability (VX-11e + Olaparib; first compound 0.1265 µM),relative viability (VX-11e + Olaparib; first compound 0.4 µM),relative viability (VX-11e + Olaparib; first compound 1.265 µM),relative viability (VX-11e + Olaparib; first compound 4 µM),relative viability (VX-11e + Phenformin; first compound 0.4 µM)
NCI-H1650,0.866,0.886,0.521,0.668,0.652,0.76,0.589,0.562,0.553,0.397,0.478,0.343,0.315,0.295,0.685,0.851,0.814,0.793,0.807,
NCI-H1944,0.874,0.869,0.525,0.78,0.558,0.468,0.441,0.343,0.347,0.282,0.194,0.193,0.218,0.168,0.405,0.417,0.376,0.345,0.328,
NCI-H1355,0.766,0.842,0.771,0.756,0.437,0.406,0.411,0.372,0.33,0.221,0.417,0.435,0.379,0.348,0.735,0.759,0.655,0.554,0.395,0.34
HOP-62,1.04,0.986,0.921,0.595,0.567,0.381,0.428,0.296,0.179,0.151,0.754,0.647,0.421,0.377,0.668,0.248,0.174,0.304,0.24,0.524
NCI-H2405,1.01,0.934,0.901,0.943,0.462,0.716,0.582,0.271,0.649,0.283,0.393,0.403,0.321,0.169,0.961,0.814,0.333,0.873,0.379,0.233
SK-MES-1,1.06,0.921,0.886,0.748,0.35,0.566,0.486,0.399,0.338,0.27,0.693,0.64,0.618,0.368,0.732,0.636,0.826,0.493,0.265,0.694
EPLC-272H,0.787,0.759,0.556,0.706,0.419,0.268,0.299,,0.225,0.173,0.322,0.22,0.32,0.225,0.771,0.833,0.588,0.38,0.219,
NCI-H522,0.796,0.876,0.738,0.614,0.666,0.684,0.773,0.618,0.645,0.589,0.609,0.621,0.48,0.656,0.588,0.594,0.457,0.545,0.533,0.558
NCI-H3122,1.02,0.959,0.696,0.888,0.564,0.236,0.239,0.177,0.29,0.148,0.408,0.358,0.335,0.254,0.717,0.661,0.689,0.558,0.468,
NCI-H1993,,0.968,0.673,0.809,0.662,,0.493,0.576,0.506,0.451,0.547,0.49,0.517,0.518,,1.13,0.895,0.879,0.785,0.484
LK-2,0.908,0.983,0.821,0.588,0.705,0.831,0.668,0.806,0.234,0.312,0.241,0.601,0.189,0.173,0.688,0.783,0.676,0.657,0.45,0.311
LCLC-103H,0.939,0.924,0.981,0.783,0.805,0.67,0.633,0.689,0.628,0.558,0.309,0.333,0.302,0.295,0.787,0.748,0.719,0.638,0.667,0.312
HCC-366,0.997,0.936,,1.03,0.676,0.353,0.344,,0.289,0.187,0.61,0.549,0.57,0.463,0.386,0.372,,0.271,0.208,
NCI-H441,1.19,1.01,,1.04,0.676,0.448,0.485,,0.278,0.325,0.858,0.837,0.732,0.49,0.553,0.572,,0.702,0.591,
COR-L 105,0.845,0.894,0.845,0.516,0.383,0.425,0.459,0.369,0.423,0.403,0.489,0.487,0.366,0.227,0.666,0.694,0.708,0.839,0.396,0.391
